# Experimental data taken from patent US20230346820A1, “METHODS AND COMPOSITIONS FOR THE TREATMENT OF SARS-COV-2” (priority 2020, published 2023).
# pEC50: −log10 of the molar value. Structures can show the parent of a compound that is named as a salt. Where two headings read alike, the source gives them in different places.
# Assays:
# [1] = tested on: HeLa-ACE2 cells
# [2] = tested on: SARS-CoV-2; conditions: for EC50: read-out: CoV-2 EC50 [μM] (Geomeans, n ≥ 2)
# [3] = tested on: SARS-CoV-2; assay: microbe, parasite or virus in culture
# [4] = in vitro; conditions: human
# [5] = tested on: SARS-CoV-2; assay: Checkerboard synergy study with remdesivir (ZIP model, synergyfinder); type: cell-based
# [6] = human, oral; cited from earlier work
# [7] = tested on: HeLa-ACE2 cells; assay: cells; type: cell-based, human
# [8] = tested on: SARS-CoV-2
# [9] = Severe acute respiratory syndrome coronavirus 2, HeLa-ACE2, 24 h, read-out: CoV-2 EC50 [μM] (Geomeans, n ≥ 2)
# [10] = CC50 [μM] (Geomeans, n ≥ 2 except where indicated: *n = 1)
# [11] = Severe acute respiratory syndrome coronavirus 2, HeLa-ACE2, read-out: SARS CoV-2 EC50 (μM)
# [12] = Table 1, ZIP model, δ>10 synergy, δ<−10 antagonism, between additive
# [13] = Homo sapiens, HeLa-ACE2, read-out: HeLa-ACE-2 EC50 [μM] (Geomeans, n ≥ 2)
# [14] = read-out: HeLa-ACE-2 EC50 [μM] (Geomeans, n ≥ 2)
Compound,HeLa-ACE2 CC50/CoV-2 EC50 [2],"EC50 [3, 9] [µM]","CC50 [4, 10] [µM]",Synergy score with remdesivir (δ) ([5]; Table 3),"EC50 [3, 11] [µM]",CC50 ([4]; Uninfected HeLa-ACE2 CC50 (μM)) [µM],"Synergy score with remdesivir (δ) [5, 12]",Cmax [6] [nM],t1/2 [6],further results
CN(C)CCOc1ccc2c(=O)c3ccc(OCCN(C)C)cc3oc2c1 [TILORINE DIHYDROCHLORIDE],11.07,0.884,–,–,–,–,–,–,–,CC50 ([1]; human): 9.79 µM
CCN(CC)CCCNc1ccnc2cc(Cl)ccc12 [AQ-13],32.34,0.8,25.9,−1.77,0.8,–,–,–,–,–
Nc1nc(N)c2nc(CCc3ccc(C(=O)N[C@@H](CCC(=O)O)C(=O)O)cc3)cnc2n1 [10-deazaaminopterin],–,–,–,–,–,–,–,–,–,"interaction with remdesivir [5]: synergized; maximal efficacy ([5]; compound alone, over the range of concentrations tested): 40%; maximal efficacy ([5]; with addition of EC2 of remdesivir): ~65%; maximal efficacy ([5]; with addition of EC24 of remdesivir): > 80%"
Nc1cc(OCC2CC2)c(C(=O)NC2CN3CCC2CC3)cc1Cl (stereo not drawn) [Pancopride],4.32,> 8.64,> 37.3,0.65,> 8.64,> 37.3,0.648,~300,"~16 h (human, oral)(26)","EC50 [7, 13]: > 9.59 µM"
Nc1nc(Nc2ccc3c(c2)CC[C@@H](N2CCCC2)CC3)nn1-c1cc2c(nn1)-c1ccccc1CCC2 [BGB324/R-428],13.05,1.2,15.7,7.223,1.2,–,–,~750,"~80 h (oral, humans)(30)",–
COc1ccc2c(c1)CN(C)CC2c1ccc(Cl)c(Cl)c1 (stereo not drawn) [diclofensine],<1.28,> 7.89,10.1,–,6.06,> 40,–,~30,"~15 h (human, oral)(25)","EC50 [7, 13]: > 9.59 µM"
CCc1ccc2c(c1)N(CC(C)CN(C)C)c1ccccc1S2 (stereo not drawn) [Ethylisobutrazine Hydrochloride],10.48,2,–,–,–,–,–,–,–,CC50 ([1]; human): 20.9 µM
CCCCN(CCCC)CCC(O)c1cc2c(Cl)cc(Cl)cc2c2cc(C(F)(F)F)ccc12 (stereo not drawn) [Halofantrine HCl],>20.66,1.16,> 23.9,−3.509,1.16,> 23.9,–,~1000,"~72 h (human oral)(16, 17)",–
CC(CN(C)C)CN1c2ccccc2CCc2ccccc21 (stereo not drawn) [Trimipramine],10.11,2.11,–,–,–,–,–,–,–,CC50 ([1]; human): 21.3 µM
CCOC(=O)[C@@H]1O[C@H]1C(=O)N[C@@H](CC(C)C)C(=O)N1CCN(Cc2ccc(OC)c(OC)c2OC)CC1 [NCO 700],>50.44,0.79,> 39.8,0.209,0.79,> 39.8,–,–,–,–
COC(=O)C1=C(C)NC(C)=C(C(=O)OC)C1c1cc([N+](=O)[O-])ccc1OCCCCNC[C@H](O)COc1ccccc1 [YM 161514],6.08,1.86,11.3,0.60,1.86,11.3,0.601,–,–,"EC50 [7, 13]: > 8.47 µM"
C=CC(=O)Nc1cc(Nc2nccc(-c3cn(C)c4ccccc34)n2)c(OC)cc1N(C)CCN(C)C [Osimertinib],>18.79,0.962,> 18.1,−0.722,0.962,> 18.1,−0.722,~1500,"~42 h (human, oral)(33, 34)",–
COc1ccc2c(O[C@@H]3C[C@H]4C(=O)N[C@]5(C(=O)NS(=O)(=O)C6CC6)C[C@H]5/C=C\CCCCN(C)C(=O)[C@@H]4C3)cc(-c3nc(C(C)C)cs3)nc2c1C [Simeprevir],>2.81,> 7.88,> 22.2,–,–,> 22.2,–,~32000,"~16 h (human oral)(21, 22)",–
COC(=O)[C@H]1[C@H]2C[C@@H]3c4[nH]c5cc(OC)ccc5c4CCN3C[C@H]2C[C@@H](OC(=O)c2cc(OC)c(OC)c(OC)c2)[C@@H]1OC [Reserpine],>6.60,–,–,–,–,–,–,–,–,"CC50 [1]: > 36.4 µM; EC50 ([2]; Table 1, HeLa-ACE2, 24 h): > 5.51 µM; EC50 [7, 14]: > 9.6 µM"
CN1CCN(c2ccc(C(=O)NCc3cnc(C#N)nc3NCC(C)(C)C)cc2)CC1 [Dutacatib],>13.43,2.69,> 36.1,2.955,2.69,> 36.1,–,–,–,–
Cc1c(O)cccc1C(=O)N[C@@H](CSc1ccccc1)[C@H](O)CN1C[C@H]2CCCC[C@H]2C[C@H]1C(=O)NC(C)(C)C [nelfinavir mesylate],>2.08,> 8.64,> 18,–,–,> 18,−1.233,~17000,~4 h (human oral)(20),–
CC(C)Oc1ccc(-c2nc(-c3cccc4c3CC[C@@H]4NCCO)no2)cc1C#N [Ozanimod],>5.60,2.63,> 14.7,−4.62,2.63,> 14.7,–,~1200,"~21 h (human, oral)(24)",–
"CC(C)(C)Cn1c(N)nc2ccc(-c3[nH]c(C(C)(C)C)nc3-c3ccc(F)cc3)nc21 [Ralimetinib mesylate/LY2228820, Ralimetinib mesylate]",14.6,1.87,27.4,−0.846,–,–,−0.846,~5000,"~145 h (human, oral)(28)",activity in HeLa-ACE2 infection assay [2]: active; activity in Calu-3 infection assay [8]: active
COC(=O)C1=C(C)NC(C)=C(C(=O)OCCN2CCN(C(c3ccccc3)c3ccccc3)CC2)C1c1cccc([N+](=O)[O-])c1 (stereo not drawn) [manidipine],>2.48,> 6.89,> 17.1,−4.727,> 6.89,> 17.1,−4.727,~10,"~3 h (human, oral)(23)",–
NC1(c2ccc(-c3nc4ccn5c(=O)[nH]nc5c4cc3-c3ccccc3)cc2)CCC1 [MK-2206],>20.63,–,–,2.087,–,–,2.087,~571,"~75 h (human, oral)(29)","CC50 [1]: > 22.8 µM; EC50 [2]: 1.1 µM; pEC50 ([2]; read-out: SARS CoV-2 EC50): 5.96; EC50 [7, 14]: > 9.59 µM"
CCCCC1CCc2cc(O)cc3c(CCN4CCN(c5cc(C)ccn5)CC4)c(C)n1c23 (stereo not drawn) [KC 11404],>8.39,2.5,> 20.9,−2.817,2.5,> 20.9,–,–,–,–
Oc1ccc(Nc2ccnc3cc(Cl)ccc23)cc1CN1CCCC1 [AMOPYROQUINE],19.02,0.904,–,–,–,–,–,–,–,CC50 ([1]; human): 17.2 µM
